Where two headings read alike, the source gives them in different places.
Columns and labels:
NAMPT = target: T1, NAMPT (Homo sapiens, UniProt P43490); experiment: Biochemical inhibition assay: NAMPT enzymatic reaction, NMN quantified by mass spectrometry; conditions: read-out: Biochem IC50
T1 construct: His tag; host or cells: E. coli
Outline: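 Inhibition of E. coli-expressed His-tagged human NAMPT, measured as NMN formation by mass spectrometry after a 30 min room-temperature reaction containing 1 μM NAM, 100 μM PRPP and 2.5 mM ATP.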

A2780 cells = experiment: In-vitro cell proliferation assay (SRB), A2780 cells; format: cell-based; conditions: Homo sapiens, A2780, 72 h, A2780 cells, 72 hours, read-out: A2780 IC50
Outline: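 SRB read-out: 6% TCA fix 1 h at 4° C., stain, Tris solubilize, A570. Media-only background subtracted; % inhibition from two compound concentrations.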

T1 sequence (P43490 whole entry): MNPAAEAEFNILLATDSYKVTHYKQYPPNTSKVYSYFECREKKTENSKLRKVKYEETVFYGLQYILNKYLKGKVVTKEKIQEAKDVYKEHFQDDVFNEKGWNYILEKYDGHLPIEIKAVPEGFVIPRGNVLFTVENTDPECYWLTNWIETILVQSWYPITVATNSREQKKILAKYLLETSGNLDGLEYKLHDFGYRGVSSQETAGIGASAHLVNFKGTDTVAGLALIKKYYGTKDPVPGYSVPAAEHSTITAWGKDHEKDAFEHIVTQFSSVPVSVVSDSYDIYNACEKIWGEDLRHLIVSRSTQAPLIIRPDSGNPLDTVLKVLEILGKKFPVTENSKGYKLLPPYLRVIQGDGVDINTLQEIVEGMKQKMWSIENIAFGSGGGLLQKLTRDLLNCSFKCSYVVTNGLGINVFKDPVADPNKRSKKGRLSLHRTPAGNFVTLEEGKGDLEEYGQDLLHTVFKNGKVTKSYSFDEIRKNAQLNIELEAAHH

| SMILES | IC50 (NAMPT; NAMPT enzymatic reaction) [nM] | IC50 (A2780 cells; SRB) [nM] | IC50 (NAMPT; NAMPT enzymatic assay) [nM] | IC50 (A2780 cells; SRB assay) [nM] |
| --- | --- | --- | --- | --- |
| COc1cc(S(=O)(=O)c2ccc(CNC(=O)c3cnc4[nH]ncc4c3)cc2)ccc1Cl | 12.7 | 13 | – | – |
| CCCOc1ccc(S(=O)(=O)c2ccc(CNC(=O)c3cnc4nccn4c3)cc2)cc1F | 2.7 | 3.3 | – | – |
| Cc1cc(Cl)ccc1S(=O)(=O)c1ccc(CNC(=O)c2cnc3[nH]ncc3c2)cc1 [N-({4-[(4-chloro-2-methylbenzene)sulfonyl]phenyl}methyl)-1H-pyrazolo[3,4-b]pyridine-5-carboxamide] | 77.5 | 58.7 | – | – |
| O=C(NCc1ccc(S(=O)(=O)c2cccc3c2OCO3)cc1)c1cnc2nccn2c1 [N-{[4-(2H-1,3-benzodioxole-4-sulfonyl)phenyl]methyl}imidazo[1,2-a]pyrimidine-6-carboxamide] | – | 93.3 | 2.9 | – |
| O=C(NCc1ccc(S(=O)(=O)c2cccc3c2sc2ccccc23)cc1)c1cnc2nccn2c1 | – | 2 | 1.8 | – |
| COc1ccc(OC)c(S(=O)(=O)c2ccc(CNC(=O)c3cc4ccncc4s3)cc2)c1 [N-({4-[(2,5-dimethoxybenzene)sulfonyl]phenyl}methyl)thieno[2,3-c]pyridine-2-carboxamide] | – | 2.3 | 4 | – |
| O=C(NCc1ccc(S(=O)(=O)CCCc2ccccc2)cc1)c1cc2cnccc2[nH]1 [N-({4-[(3-phenylpropane)sulfonyl]phenyl}methyl)-1H-pyrrolo[3,2-c]pyridine-2-carboxamide] | 14 | 78 | – | – |
| CC(=O)c1cccc(S(=O)(=O)c2ccc(CNC(=O)c3ccc4nccn4c3)cc2)c1 [N-({4-[(3-acetylbenzene)sulfonyl]phenyl}methyl)imidazo[1,2-a]pyridine-6-carboxamide] | 12.5 | 6.37 | – | – |
| COc1ccc(S(=O)(=O)c2ccc(CNC(=O)c3cc4ccncc4s3)cc2)cc1F [N-({4-[(3-fluoro-4-methoxybenzene)sulfonyl]phenyl}methyl)thieno[2,3-c]pyridine-2-carboxamide] | 5 | – | – | 2.5 |
| CC(=O)c1ccc(S(=O)(=O)c2ccc(CNC(=O)c3cc4ccncc4s3)cc2)cc1 [N-({4-[(4-acetylbenzene)sulfonyl]phenyl}methyl)thieno[2,3-c]pyridine-2-carboxamide] | 4 | – | – | 2.5 |
| N#Cc1cccc(S(=O)(=O)c2ccc(CNC(=O)c3cc4cnccc4[nH]3)cc2)c1 | 12.1 | 11.3 | – | – |
| COc1cc(OC)cc(S(=O)(=O)c2ccc(CNC(=O)c3cc4ccncc4s3)cc2)c1 | 1.3 | 0.9 | – | – |
| O=C(NCc1ccc(S(=O)(=O)c2cccc(F)c2)cc1)c1cc2cnccc2[nH]1 [N-({4-[(3-fluorobenzene)sulfonyl]phenyl}methyl)-1H-pyrrolo[3,2-c]pyridine-2-carboxamide] | 9 | – | – | 10 |
| COc1ccc(OC)c(S(=O)(=O)c2ccc(CNC(=O)c3cc4ccncc4o3)cc2)c1 | 11.4 | 6.3 | – | – |
| Cc1c(Cl)cccc1S(=O)(=O)c1ccc(CNC(=O)c2ccc3nccn3c2)cc1 | 25.7 | 5 | – | – |
| CCN(C)c1ncc(S(=O)(=O)c2ccc(CNC(=O)c3cc4ccncc4o3)cc2)s1 [N-[(4-{2-[ethyl(methyl)amino]-1,3-thiazole-5-sulfonyl}phenyl)methyl]furo[2,3-c]pyridine-2-carboxamide] | – | 0.9 | 4.8 | – |
| O=C(NCc1ccc(S(=O)(=O)c2ccc(Cl)c(Cl)c2)cc1)c1cc2ccncc2o1 | 10.4 | 4.8 | – | – |
| O=C(NCc1ccc(S(=O)(=O)c2cnc(N3CCCC3)s2)cc1)c1cnc2nccn2c1 [N-({4-[2-(pyrrolidin-1-yl)-1,3-thiazole-5-sulfonyl]phenyl}methyl)imidazo[1,2-a]pyrimidine-6-carboxamide] | – | 0.9 | 2.9 | – |
| Cc1ccc(S(=O)(=O)c2ccc(CNC(=O)c3cnc4[nH]ncc4c3)cc2)cc1C | 5.1 | 3.4 | – | – |
| O=C(NCc1ccc(S(=O)(=O)c2ccc(Cl)c(F)c2)cc1)c1cc2ccncc2o1 | 18.5 | 6.5 | – | – |
| O=C(NCc1ccc(CCS(=O)(=O)c2ccccc2)cc1)c1cc2cnccc2[nH]1 [N-({4-[2-(benzenesulfonyl)ethyl]phenyl}methyl)-1H-pyrrolo[3,2-c]pyridine-2-carboxamide] | – | 166 | 23 | – |
| CC(C)COc1ccc(S(=O)(=O)c2ccc(CNC(=O)c3cnc4nccn4c3)cc2)cc1 | – | 5.2 | 5.5 | – |
| O=C(NCc1ccc(S(=O)(=O)c2cccc(N3CCCCC3)c2)cc1)c1ccc2nccn2c1 | – | 3.4 | 11.4 | – |
| O=C(NCc1ccc(S(=O)(=O)c2cccc(N3CCCC3)c2)cc1)c1cc2cc(O)ccc2[nH]1 | 144 | 100 to 1000 | – | – |

| SMILES | IC50 (NAMPT; NAMPT enzymatic reaction) [nM] | IC50 (A2780 cells; SRB) [nM] | IC50 (NAMPT; NAMPT enzymatic assay) [nM] | IC50 (A2780 cells; SRB assay) [nM] |
| --- | --- | --- | --- | --- |
| CN(C)c1ccc(S(=O)(=O)c2ccc(CNC(=O)c3cnc4nccn4c3)cc2)cn1 [N-({4-[6-(dimethylamino)pyridine-3-sulfonyl]phenyl}methyl)imidazo[1,2-a]pyrimidine-6-carboxamide] | – | 5.9 | 2.7 | – |
| COc1cc(Cl)ccc1S(=O)(=O)c1ccc(CNC(=O)c2cc3ccncc3s2)cc1 [N-({4-[(4-chloro-2-methoxybenzene)sulfonyl]phenyl}methyl)thieno[2,3-c]pyridine-2-carboxamide] | 10 | – | – | 3.8 |
| Cc1cc(Cl)cc(S(=O)(=O)c2ccc(CNC(=O)c3ccc4nccn4c3)cc2)c1 | 6.4 | 2 | – | – |
| COc1cc(C)cc(OC)c1S(=O)(=O)c1ccc(CNC(=O)c2cnc3[nH]ncc3c2)cc1 | 100 to 1000 | 100 to 1000 | – | – |
| O=C(NCc1ccc(S(=O)(=O)c2cccc3c2OCO3)cc1)c1cc2ccncc2o1 [N-{[4-(2H-1,3-benzodioxole-4-sulfonyl)phenyl]methyl}furo[2,3-c]pyridine-2-carboxamide] | – | 26.6 | 25.8 | – |
| O=C(NCc1ccc(S(=O)(=O)c2ccccc2Oc2ccccc2)cc1)c1cnc2[nH]ncc2c1 [N-({4-[(2-phenoxybenzene)sulfonyl]phenyl}methyl)-1H-pyrazolo[3,4-b]pyridine-5-carboxamide] | 100 to 1000 | 100 to 1000 | – | – |
| O=C(NCc1ccc(S(=O)(=O)c2ccc(Cl)cc2C(F)(F)F)cc1)c1ccc2nccn2c1 | – | 8.5 | 19.8 | – |
| N#Cc1ccc(S(=O)(=O)c2ccc(CNC(=O)c3cnc4[nH]ncc4c3)cc2)cc1 [N-({4-[(4-cyanobenzene)sulfonyl]phenyl}methyl)-1H-pyrazolo[3,4-b]pyridine-5-carboxamide] | 28.4 | 20.8 | – | – |
| O=C(NCc1ccc(S(=O)(=O)c2cncc3ccccc23)cc1)c1ccc2nccn2c1 [N-{[4-(isoquinoline-4-sulfonyl)phenyl]methyl}imidazo[1,2-a]pyridine-6-carboxamide] | – | 4.1 | 22.4 | – |
| CCS(=O)(=O)c1cccc(S(=O)(=O)c2ccc(CNC(=O)c3cc4ccncc4s3)cc2)c1 | – | 5.4 | 2.8 | – |
| Cc1cncc(S(=O)(=O)c2ccc(CNC(=O)c3cnc4[nH]ncc4c3)cc2)n1 [N-{[4-(6-methylpyrazine-2-sulfonyl)phenyl]methyl}-1H-pyrazolo[3,4-b]pyridine-5-carboxamide] | – | 31.2 | 34.9 | – |
| O=C(NCc1ccc(S(=O)(=O)c2cccc3c2OCC3)cc1)c1cc2cnccc2[nH]1 [N-{[4-(2,3-dihydro-1-benzofuran-7-sulfonyl)phenyl]methyl}-1H-pyrrolo[3,2-c]pyridine-2-carboxamide] | – | 3.8 | 14 | – |
| O=C(NCc1ccc(S(=O)(=O)c2cc(Cl)cc(C(F)(F)F)c2)cc1)c1cnc2nccn2c1 | – | 0.4 | 4.4 | – |
| Cc1c(Cl)cccc1S(=O)(=O)c1ccc(CNC(=O)c2cnc3nccn3c2)cc1 | 4.3 | 26.5 | – | – |
| O=C(NCc1ccc(S(=O)(=O)c2ccc(Cl)c(F)c2)cc1)c1cc2ccncc2s1 [N-({4-[(4-chloro-3-fluorobenzene)sulfonyl]phenyl}methyl)thieno[2,3-c]pyridine-2-carboxamide] | 3 | – | – | 7.1 |
| Cc1cc(C)n(-c2cccc(S(=O)(=O)c3ccc(CNC(=O)c4cc5ccncc5s4)cc3)c2)n1 | – | 1.5 | 3.1 | – |
| CC(C)c1cccc(S(=O)(=O)c2ccc(CNC(=O)c3cnc4[nH]ncc4c3)cc2)c1 | – | 6.3 | 13.9 | – |
| COCc1cccc(S(=O)(=O)c2ccc(CNC(=O)c3cc4ccncc4s3)cc2)c1 | – | 6.7 | 2.6 | – |
| COc1ccc(Cl)cc1S(=O)(=O)c1ccc(CNC(=O)c2cc3ccncc3s2)cc1 [N-({4-[(5-chloro-2-methoxybenzene)sulfonyl]phenyl}methyl)thieno[2,3-c]pyridine-2-carboxamide] | 4 | – | – | 1.3 |
| O=C(NCc1ccc(S(=O)(=O)Nc2cccc3c(=O)occc23)cc1)c1cc2cnccc2[nH]1 [N-({4-[(1-oxo-1H-isochromen-5-yl)sulfamoyl]phenyl}methyl)-1H-pyrrolo[3,2-c]pyridine-2-carboxamide] | 8 | – | – | 2270 |
| Cc1cc(Cl)cnc1S(=O)(=O)c1ccc(CNC(=O)c2cnc3[nH]ncc3c2)cc1 [N-{[4-(5-chloro-3-methylpyridine-2-sulfonyl)phenyl]methyl}-1H-pyrazolo[3,4-b]pyridine-5-carboxamide] | – | 75.3 | 62.5 | – |
| O=C(NCc1ccc(S(=O)(=O)c2ccc(OC(F)(F)F)c(F)c2)cc1)c1ccc2nccn2c1 | – | 6.3 | 8.4 | – |
| Cc1cc(C(F)(F)F)ccc1S(=O)(=O)c1ccc(CNC(=O)c2cnc3nccn3c2)cc1 | – | 51.1 | 7.1 | – |
